How the values were obtained:
Zap-70 [1] = molecular target: T1, Zap-70 (Homo sapiens, UniProt P43403); experiment: Saturation-transfer difference (STD) NMR binding to recombinant Zap-70; set-up: purchased Origene, Rockville, MD; conditions: Pom 320 μM, Len 2.56 mM, ATP 2.56 mM, Zap-70 approximately 2 μM, deuterated PBS
T1 sequence (P43403 1-619): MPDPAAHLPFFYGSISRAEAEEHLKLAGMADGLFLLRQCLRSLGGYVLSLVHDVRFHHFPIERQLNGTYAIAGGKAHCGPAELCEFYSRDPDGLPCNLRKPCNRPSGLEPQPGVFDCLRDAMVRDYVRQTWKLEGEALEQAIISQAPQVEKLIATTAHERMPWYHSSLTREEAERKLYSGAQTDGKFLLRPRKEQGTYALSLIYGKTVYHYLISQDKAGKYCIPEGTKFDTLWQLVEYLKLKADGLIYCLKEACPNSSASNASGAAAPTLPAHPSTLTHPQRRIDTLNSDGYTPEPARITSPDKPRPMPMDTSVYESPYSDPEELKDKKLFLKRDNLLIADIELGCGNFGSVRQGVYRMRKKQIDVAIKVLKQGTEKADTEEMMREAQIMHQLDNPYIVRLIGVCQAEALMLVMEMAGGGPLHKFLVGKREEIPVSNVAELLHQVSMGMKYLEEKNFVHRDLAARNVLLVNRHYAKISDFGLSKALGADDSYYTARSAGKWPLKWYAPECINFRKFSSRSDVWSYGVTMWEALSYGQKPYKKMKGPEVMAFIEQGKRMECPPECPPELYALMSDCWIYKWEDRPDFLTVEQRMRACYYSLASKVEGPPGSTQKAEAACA
Method: (A) Jurkat cells were transfected with scrambled (Sc) siRNA or Zap-70 siRNA. Whole cell lysates were subjected to immunoblotting using indicated Abs. (B) Jurkat cells were treated with lenalidomide ([…]) or pomalidomide (1 and 3 μM) for 4 h and 8 h. Whole cell lysates were subjected to p-Zap ELISA assay. (C) Jurkat whole cell lysates were incubated with pomalidomide-beads in the presence or absence of competitor (1 mM free pomalidomide) for 1 h. After elution, samples were subjected to immunoblotting using anti-Zap-70 Ab. (D) Saturation-transfer difference resulting from the binding of pomalidomide to Zap-70. Pomalidomide is at 320 μM and Zap-70 is approximately 2 μM in deuterated PBS solution. […] (E) Saturation-transfer difference resulting from the binding of pomalidomide to Zap-70 in the presence of 2.56 mMATP. Pomalidomide is at 320 μM and Zap-70 is approximately 2 μM in deuterated PBS solution. […] Note that both ATP and pomalidomide show binding the Zap-70. (F) Non-cell based Zap-70 kinase assay was carried out, according to manufacturer's protocol.
(A) Saturation-transfer difference resulting from the binding of lenalidomide to Zap-70, with lenalidomide (2.56 mM) and Zap-70 (2 μM) in deuterated PBS solution. […] (B) Saturation-transfer difference resulting from the binding of lenalidomide to Zap70 in the presence of 2.56 mM ATP, with lenalidomide (2.56 mM) and Zap-70 (2 μM) in deuterated PBS solution.
Commercial recombinant Zap-70 (Origene, Rockville, MD) was prepared by gel filtration buffer exchange into deuterated phosphate-buffered saline (PBS), which removed any components of the protein storage buffer, including glycerol. Len and Pom were made as d6-DMSO stock solutions and frozen in aliquots prior to use. ATP was stored frozen in aliquots at −20° C. in deuterated PBS. NMR samples were prepared in 5 mm SampleJet tubes to a final volume of 500 μl by adding 5-20 μl of the appropriate IMiD stock solution to the buffer-exchanged protein. The final concentration of protein in the NMR samples was approximately 2 μM. […]

Zap-70 [2] = molecular target: T1, Zap-70; experiment: Immunoblotting of p-Zap-70 in NK-92 cells; assay type: cell-based; conditions: 24 h, Pom 0.5 and 1 μM, CC-220 0.01, 0.1, 1 μM
Method: (A) NK-92 cells were cultured with Pom (0.5 and 1 μM) for 24 h. Whole cell lysates were subjected to immunoblotting using indicated Abs. (B) NK-92 cells were cultured with Pom (0.5 and 1 μM) for 48 h. The cells were subsequently incubated with calcein-AM-stained U266 cells for 4 h at the indicated effector/target (E/T) ratios. Percent specific lysis was calculated as described previously. (C) NK-92 cells were cultured with Pom (0.03-3 μM) for 72 h. Cell growth was assessed by MTT assay. (D) NK-92 cells were transfected with scrambled (Sc) or Zap-70 siRNA (Zap70si). After 72 h incubation, cell viability was measured by trypan-blue dye exclusion. For B, C, and D, data are representative of at least two independent experiments, and values are expressed in mean±SD.
(A) NK-92 cells were cultured with Len (1 μM), Pom (0.01, 0.1, 1 μM) or CC-220 (0.01, 0.1, 1 μM) for 24 h. Whole cell lysates were subjected to immunoblotting using indicated Abs. (B) NK-92 cells were cultured with Pom (0.1 and 1 μM) or CC-220 ([…]) for 48 h. NK cell activity was measured by incubation with calcein AM-labeled U266 cells for 4 h at E/T ratio of 2.5/1. Percent specific lysis was calculated as previously described. Data are representative of three independent experiments, and values are expressed in mean±SD. *: p<0.01.

direct binding to Zap-70 (STD NMR) (Zap-70 [1]): directly binds to Zap-70
p-Zap-70 (immunoblotting) (Zap-70 [2]): induced increased p-Zap70
Structure (SMILES): Nc1cccc2c1C(=O)N(C1CCC(=O)NC1=O)C2=O (centres unmarked) [pomalidomide]

Reference: patent US20240216354A1, “IMMUNOMODULATORY IMIDE DRUGS AS ZETA-CHAIN-ASSOCIATED PROTEIN KINASE 70 (ZAP70) AGONISTS AND USES THEREOF” (Dana-Farber Cancer Institute, Inc., priority 2019, published 2024)
